Data from US20230382924A1, “MODULATORS OF CYSTIC FIBROSIS TRANSMEMBRANE CONDUCTANCE REGULATOR” (VERTEX PHARMACEUTICALS INCORPORATED, priority 2020, published 2023).
Like-named read-outs stand apart in the source and are kept apart here. Each block holds one compound with its values, some of them ahead of it.

Key:
CFTR [1] = molecular target: T1, CFTR (Homo sapiens, UniProt P13569); assay: Membrane Potential Dye, Enteroid Assay B; format: cell-based; conditions: Table 9
In short: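 Enteroid cells loaded 25 min at room temperature with 20 μM methyl oxonol plus 30 μM CaCCinh-A01 and 30 μM Chicago Sky Blue, then switched to chloride-free gluconate buffer. Chloride transport was started by chloride-free stimulation solution, with fluorescence read for 15 min.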

[2] = amide bond, 13-membered ring, DMF, 25.0 °C
CFTR [3] = molecular target: T2, CFTR (Homo sapiens, UniProt P13569, DEL508-508); assay: HBE assay: Ussing chamber assay of CFTR-mediated short-circuit currents in F508del/MF-HBE cells; format: cell-based; conditions: 20% human serum; for HBE Activity at 10 μM (%): single fixed concentration of 10 μM with 1 μM Ivacaftor; for HBE Activity at 10 μM (%) / Emax: 18-24 hours, compared to known Vertex corrector with 18 μM Tezacaftor and 1 μM Ivacaftor; for EC50: range of concentrations in combination with 1 μM Ivacaftor, 18-24 hours at 37° C.; for Emax: with 1 μM Ivacaftor, read-out: HBE Max Activity (%)
T2 construct: endogenous in cells; host or cells: primary human bronchial epithelial cells from CF subjects (F508del/MF)
T2 sequence (P13569 with tags, fused parts or gaps DEL508-508): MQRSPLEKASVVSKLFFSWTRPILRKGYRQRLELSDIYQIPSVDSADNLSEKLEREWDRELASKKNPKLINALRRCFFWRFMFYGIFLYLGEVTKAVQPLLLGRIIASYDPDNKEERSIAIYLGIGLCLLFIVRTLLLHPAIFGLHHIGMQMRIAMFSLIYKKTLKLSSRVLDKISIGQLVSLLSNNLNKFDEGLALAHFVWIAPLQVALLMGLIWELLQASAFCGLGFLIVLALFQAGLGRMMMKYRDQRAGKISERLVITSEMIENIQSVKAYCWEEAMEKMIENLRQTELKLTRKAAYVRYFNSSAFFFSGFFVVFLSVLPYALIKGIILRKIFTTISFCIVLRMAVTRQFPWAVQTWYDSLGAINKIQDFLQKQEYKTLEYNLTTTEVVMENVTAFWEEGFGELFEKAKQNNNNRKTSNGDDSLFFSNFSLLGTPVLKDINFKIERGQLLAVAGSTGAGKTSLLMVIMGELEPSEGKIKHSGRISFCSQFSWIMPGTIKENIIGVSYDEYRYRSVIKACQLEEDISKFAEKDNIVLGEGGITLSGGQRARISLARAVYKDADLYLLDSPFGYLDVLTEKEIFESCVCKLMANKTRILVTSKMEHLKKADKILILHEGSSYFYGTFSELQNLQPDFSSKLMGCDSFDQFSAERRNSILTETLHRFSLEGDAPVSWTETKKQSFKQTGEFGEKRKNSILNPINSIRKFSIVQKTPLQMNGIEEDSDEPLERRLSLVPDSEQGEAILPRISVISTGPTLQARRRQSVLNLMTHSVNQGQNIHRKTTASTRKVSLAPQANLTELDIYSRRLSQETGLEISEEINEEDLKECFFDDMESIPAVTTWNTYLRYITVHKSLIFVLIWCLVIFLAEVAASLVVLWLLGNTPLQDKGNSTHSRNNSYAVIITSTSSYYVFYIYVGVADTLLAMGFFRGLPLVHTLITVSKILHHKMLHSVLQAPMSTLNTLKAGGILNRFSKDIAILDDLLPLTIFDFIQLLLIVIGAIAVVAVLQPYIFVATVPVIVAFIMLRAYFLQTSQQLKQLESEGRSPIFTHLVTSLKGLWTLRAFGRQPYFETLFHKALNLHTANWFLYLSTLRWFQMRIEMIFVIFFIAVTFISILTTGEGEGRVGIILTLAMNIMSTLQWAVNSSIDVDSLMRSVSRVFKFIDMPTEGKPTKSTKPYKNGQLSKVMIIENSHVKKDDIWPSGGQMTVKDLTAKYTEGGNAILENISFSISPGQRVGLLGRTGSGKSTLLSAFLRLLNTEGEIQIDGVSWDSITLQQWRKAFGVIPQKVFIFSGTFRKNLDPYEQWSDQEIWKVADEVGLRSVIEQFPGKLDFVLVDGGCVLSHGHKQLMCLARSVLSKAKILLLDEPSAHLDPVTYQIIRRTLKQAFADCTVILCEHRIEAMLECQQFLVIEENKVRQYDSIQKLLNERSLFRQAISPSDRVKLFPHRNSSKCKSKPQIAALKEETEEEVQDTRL
Procedure: 1. Ussing Chamber Assay of CFTR-Mediated Short-Circuit Currents
Ussing chamber experiments were performed using human bronchial epithelial (HBE) cells derived from CF subjects heterozygous for F508del and a minimal function CFTR mutation (F508del/MF-HBE) and cultured as previously described (Neuberger T, Burton B, Clark H, Van Goor F Methods Mol Biol 2011:741:39-54). After four days the apical media was removed, and the cells were grown at an air liquid interface for >14 days prior to use.
To isolate the CFTR-mediated short-circuit (Isc) current, F508del/MF-HBE grown on Costar® Snapwell™ cell culture inserts were mounted in an Ussing chamber and the transepithelial Isc was measured under voltage-clamp recording conditions (Vhold=0 mV) at 37° C. The basolateral solution contained (in mM) 145 NaCl, 0.83 K2HPO4, 3.3 KH2P04, 1.2 MgCl2, 1.2 CaCl2), 10 Glucose, 10 HEPES (pH adjusted to 7.4 with NaOH) and the apical solution contained (in mM) 145 NaGluconate, 1.2 MgCl2, 1.2 CaCl2), 10 glucose, 10 HEPES (pH adjusted to 7.4 with NaOH) and 30 μM amiloride to block the epithelial sodium channel. Forskolin (20 μM) was added to the apical surface to activate CFTR, followed by apical addition of a CFTR inhibitor cocktail consisting of BPO, GlyH-101, and CFTR inhibitor 172 (each at 20 μM final assay concentration) to specifically isolate CFTR currents. The CFTR-mediated Isc (ρA/cm^2) for each condition was determined from the peak forskolin response to the steady-state current following inhibition.
2. Identification of Corrector Compounds
The activity of the CFTR corrector compounds on the CFTR-mediated Isc was determined in Ussing chamber studies as described above. The F508del/MF-HBE cell cultures were either incubated with the corrector compounds at a range of concentrations in combination with 1 μM Ivacaftor or were incubated with the corrector compounds at a single fixed concentration of 10 μM in combination with 1 μM Ivacaftor for 18-24 hours at 37° C. and in the presence of 20% human serum. The concentration of corrector compounds with 1 μM Ivacaftor during the 18-24 hours incubations was kept constant throughout the Ussing chamber measurement of the CFTR-mediated Isc to ensure compounds were present throughout the entire experiment.

CFTR [4] = molecular target: T1, CFTR; assay: Membrane Potential Dye, Enteroid Assay A; format: cell-based; conditions: for EC50: read-out: Ent. A EC50
In short: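 Signal is reported as % Activity relative to a triple CFTR modulator control (3 μM + 3 μM + 300 nM acute). Read-out: membrane potential fluorescence (20 μM methyl oxonol) monitored for 15 min after chloride-free stimulation. Dye loading took 25 min at room temperature in Bath 1 buffer containing CaCC blockers.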

T1 sequence (P13569 with tags, fused parts or gaps DEL508-508): as above

Compound: CC(C)C[C@@H]1COc2cc(Cl)nc(n2)NS(=O)(=O)c2cccc(c2)C(=O)N1
- ring closure, isolated yield (from CC(C)C[C@@H](N)COc1cc(Cl)nc(NS(=O)(=O)c2cccc(C(=O)O)c2)n1, amide bond, 13-membered ring, HATU/Et3N, DMF, 29.1 mM, -5.0 °C, 0.17 h): 30%

Compound: COCN1c2nc3cc(n2)-c2ccccc2/C=C/CCCCCC[C@H](CO3)NC(=O)c2cccc(c2)S1(=O)=O
- ring closure, isolated yield (from C=CCCCCCC[C@@H]1COc2cc(-c3ccccc3C=C)nc(n2)N(COC)S(=O)(=O)c2cccc(c2)C(=O)N1, rcm bond, 16-membered ring, Grubbs II, toluene, 16.4 mM, 100.0 °C, 1.5 h): 80%

Compound: Cc1cccc(C)c1-c1cc2nc(n1)NS(=O)(=O)c1cccc(c1)C(=O)NCC(c1ccc(C3(C(F)(F)F)CC3)cc1)O2 (stereo not drawn)
- ring closure, isolated yield (from Cc1cccc(C)c1-c1cc(OC(CN)c2ccc(C3(C(F)(F)F)CC3)cc2)nc(NS(=O)(=O)c2cccc(C(=O)O)c2)n1, amide bond, 13-membered ring, HATU/NaOtBu, THF/DMF, 67.1 mM, 25.0 °C, 0.75 h, 2 steps): 26%

Compound: O=S1(=O)Nc2nc(Cl)cc(n2)-c2ccccc2CCCNc2cccc1c2
- ring closure, isolated yield (from CC1(C)OB(c2ccccc2CCCNc2cccc(S(=O)(=O)Nc3nc(Cl)cc(Cl)n3)c2)OC1(C)C, cc_pd bond, 14-membered ring, Pd(PPh3)4/K2CO3, 1,4-dioxane/water, 11.2 mM, 90.0 °C, 5.0 h): 19%

Compound: C=CCCCCCC[C@@H]1COc2cc(-c3ccccc3C=C)nc(n2)NS(=O)(=O)c2cccc(c2)C(=O)N1 [Compound 35, (11R)-11-Oct-7-enyl-2,2-dioxo-6-(2-vinylphenyl)-9-oxa-2λ^6-thia-3,5,12,19-tetrazatricyclo[12.3.1.14,8]nonadeca-1(18),4,6,8(19),14,16-hexaen-13-one]
- ring closure, isolated yield (from C=CCCCCCC[C@@H](N)COc1cc(-c2ccccc2C=C)nc(NS(=O)(=O)c2cccc(C(=O)O)c2)n1, amide bond, 13-membered ring, HATU/NaOtBu, DMF/THF, 19.4 mM, 0.0 °C, 0.67 h, 2 steps): 35%
- Ent. B Max Activity (CFTR [1]): ++ (++ is 30-60%)
- EC50 (CFTR [1]; read-out: Ent. B EC50): < 1 µM

Compound: Cc1cccc(C)c1-c1cc2nc(n1)NS(=O)(=O)c1cccc(c1)C(=O)N[C@H](CC1CC3(CCC3)C1)CO2 [Compound 49, (11R)-6-(2,6-Dimethylphenyl)-2,2-dioxo-11-(spiro[3.3]heptan-2-ylmethyl)-9-oxa-2λ^6-thia-3,5,12,19-tetrazatricyclo[12.3.1.14,8]nonadeca-1(18),4(19),5,7,14,16-hexaen-13-one]
- ring closure, yield after HPLC ([2]; from Cc1cccc(C)c1-c1cc(OC[C@H](N)CC2CC3(CCC3)C2)nc(NS(=O)(=O)c2cccc(C(=O)O)c2)n1, CDMT/NMM, 32.4 mM, 1.5 h): 49%
- HBE Activity at 10 μM (%) (CFTR [3]): +++ (+++ is >60%)

Compound: Cc1cccc(C)c1-c1cc2nc(n1)NS(=O)(=O)c1cccc(c1)C(=O)NC(C1CC3(CCC3)C1)CO2 (stereo not drawn) [Compound 50, 6-(2,6-Dimethylphenyl)-2,2-dioxo-11-spiro[3.3]heptan-2-yl-9-oxa-2λ^6-thia-3,5,12,19-tetrazatricyclo[12.3.1.14,8]nonadeca-1(18),4(19),5,7,14,16-hexaen-13-one]
- ring closure, yield after HPLC ([2]; from Cc1cccc(C)c1-c1cc(OCC(N)C2CC3(CCC3)C2)nc(NS(=O)(=O)c2cccc(C(=O)O)c2)n1, CDMT/NMM, 46.6 mM, 1.5 h): 25%
- EC50 (CFTR [3]): < 1 µM
- Emax (CFTR [3]): > 60%

Compound: Cc1ccc(C)c(-c2cc3nc(n2)NS(=O)(=O)c2cccc(c2)C(=O)N[C@H](CC(C)(C)C)CO3)c1C [Compound 51, (11R)-11-(2,2-Dimethylpropyl)-6-(2,3,6-trimethylphenyl)-9-oxa-2λ^6-thia-3,5,12,19-tetraazatricyclo[12.3.1.14,8]nonadeca-1(18),4,6,8(19),14,16-hexaene-2,2,13-trione]
- ring closure, yield after HPLC ([2]; from Cc1ccc(C)c(-c2cc(OC[C@H](N)CC(C)(C)C)nc(NS(=O)(=O)c3cccc(C(=O)O)c3)n2)c1C, CDMT/NMM, 23.7 mM, 16.0 h): 31%
- EC50 (CFTR [3]): < 1 µM
- Emax (CFTR [3]): > 60%

Compound: Cc1ccc2ccccc2c1-c1cc2nc(n1)NS(=O)(=O)c1cccc(c1)C(=O)N[C@H](CC(C)(C)C)CO2 [Compound 52, (11R)-11-(2,2-Dimethylpropyl)-6-(2-methyl-1-naphthyl)-2,2-dioxo-9-oxa-2λ^6-thia-3,5,12,19-tetrazatricyclo[12.3.1.14,8]nonadeca-1(18),4(19),5,7,14,16-hexaen-13-one]
- ring closure, yield after HPLC ([2]; from Cc1ccc2ccccc2c1-c1cc(OC[C@H](N)CC(C)(C)C)nc(NS(=O)(=O)c2cccc(C(=O)O)c2)n1, HATU/TEA, 44.8 mM, 2.0 h): 25%
- EC50 (CFTR [3]): < 1 µM
- Emax (CFTR [3]): > 60%

Second part, led by results:

- Ent. A Max Activity (CFTR [4]; Table 9): +++ (+++ is >60%)
- EC50 (CFTR [4]; Table 9): < 1 µM
Compound: Cc1cccc(C)c1-c1cc2nc(n1)NS(=O)(=O)c1cccc(c1)C(=O)N[C@@H]1CN(C(=O)OC(C)(C)C)CC[C@H]1O2 [Compound 59, tert-Butyl (3R,8R)-20-(2,6-dimethylphenyl)-10,16,16-trioxo-2-oxa-16λ^6-thia-6,9,17,19,22-pentaazatetracyclo[16.3.1.111,15.03,8]tricosa-1(21),11(23),12,14,18(22),19-hexaene-6-carboxylate]
- ring closure, isolated yield (from Cc1cccc(C)c1-c1cc(O[C@@H]2CCN(C(=O)OC(C)(C)C)C[C@H]2N)nc(NS(=O)(=O)c2cccc(C(=O)O)c2)n1, amide bond, 13-membered ring, COMU/DIEA, DMF, 19.4 mM, 19.0 h): 34%

- EC50 (CFTR [4]; Enteroid Assay A): 1 to 3 µM
Compound: Cc1cccc(C)c1-c1cc2nc(n1)NS(=O)(=O)c1cccc(c1)C(=O)NCC1(CCN(C(=O)OC(C)(C)C)CC1)CO2 [Compound 81, tert-Butyl 6-(2,6-dimethylphenyl)-2,2,14-trioxo-spiro[9-oxa-2λ^6-thia-3,5,13,20-tetrazatricyclo[13.3.1.14,8]icosa-1(19),4(20),5,7,15,17-hexaene-11,4′-piperidine]-1′-carboxylate]
- ring closure, isolated yield (from Cc1cccc(C)c1-c1cc(Cl)nc(NS(=O)(=O)c2cccc(C(=O)NCC3(CO)CCN(C(=O)OC(C)(C)C)CC3)c2)n1, snar bond, 14-membered ring, NaH, THF, 5.0 mM, 25.0 °C, 3.0 h): 66%

- HBE Activity at 10 μM (%) (CFTR [3]): + (+ is <30%)
Compound: Cc1cccc(C)c1-c1cc2nc(n1)NS(=O)(=O)c1cccc(c1)C(=O)N[C@@H](CC(C)(C)C)CO2 [Compound 121]

- HBE Activity at 10 μM (%) (CFTR [3]): + (+ is <30%)
Compound: Cc1cccc(C)c1-c1cc2nc(n1)NS(=O)(=O)c1cccc(c1)C(=O)NC(C(CC(C)C)c1ccc(C(C)(C)C)cc1)CO2 (stereo not drawn) [Compound 207]

- HBE Activity at 10 μM (%) (CFTR [3]): +++ (+++ is >60%)
Compound: Cc1cccc(C)c1-c1cc2nc(n1)NS(=O)(=O)c1cccc(c1)C(=O)NC(C(CC(C)C)c1ccc(C(C)(C)C)cc1)CO2 (stereo not drawn) [Compound 208]

- EC50 (CFTR [3]): < 1 µM
Compound: Cc1cccc(C)c1-c1cc2nc(n1)NS(=O)(=O)c1cccc(c1)C(=O)NC(C(CC(C)C)c1cccc(C(C)(C)C)c1)CO2 (stereo not drawn) [Compound 209]

- EC50 (CFTR [3]): < 1 µM
- Emax (CFTR [3]): 30 to 60%
Compound: Cc1cccc(C)c1-c1cc2nc(n1)NS(=O)(=O)c1cccc(c1)C(=O)NC(C(CC(C)C)c1ccc(C(C)(C)C)cc1)CO2 (stereo not drawn) [Compound 210]

- EC50 (CFTR [3]): < 1 µM
- Emax (CFTR [3]): > 60%
Compound: Cc1cccc(C)c1-c1cc2nc(n1)NS(=O)(=O)c1cccc(c1)C(=O)NC(C(CC(C)C)c1cccc(C(C)(C)C)c1)CO2 (stereo not drawn) [Compound 211]

- EC50 (CFTR [3]): < 1 µM
- Emax (CFTR [3]): > 60%
Compound: Cc1cccc(CC2CCCCC2)c1-c1cc2nc(n1)NS(=O)(=O)c1cccc(c1)C(=O)N[C@H](CC(C)(C)C)CO2 [Compound 299]
